# Columns and labels:
# [1] = format: in vitro ADME, human; settings: lysed on ice for 5 min before addition of PCA, relative to samples receiving PCA <30 s after lysis; HPLC; not shown
# [2] = system: platelet actin (cell actin); settings: ref Weber et al., 1992, cited from earlier work
# muscle G-actin [3] = assay: TB4 binding to muscle G-actin from rates of pyrenyl actin elongation; design: species or system rabbit
# [4] = ref Safer et al., 1990; cited from earlier work
# muscle G-actin [5] = settings: cited from earlier work
# G-actin = assay: Non-denaturing PAGE and immunoblot of PMN supernatants for G-actin/TB4 complex; format: binding, human
# F-actin in human PMNs = assay: F-actin level in PMNs, rhodamine phalloidin binding; format: cell-based
# [6] = system: G-actin/TB4 complex in human PMNs; assay: Change in G-actin/TB4 complex band after stimulation of PMNs; format: cell-based; settings: 10^-7 M FNLLP, 30 s
# pyrenyl G-actin = pyrenyl G-actin (Oryctolagus cuniculus, UniProt P68135); format: biochemical, rabbit
compound,measurement,setting,value
Thymosin beta 4 [TB4],TB4 remaining in cell lysate,[1],95%
same,Kd,[2]; read-out: Kd for platelet / cell actin,600 nM
same,affinity for nonmuscle vs muscle actin,[2],approximately threefold higher
same,kinetics of bovine spleen T beta 4 binding to muscle pyrenyl G-actin,muscle G-actin [3],sufficiently rapid to accommodate the rapid changes in actin polymerization and depolymerization observed in vivo
same,effect of preincubation with TB4 on polymerization rate,"muscle G-actin [3]; 2 μM pyrenyl G-actin with 5 μM TB4, F-actin nuclei",slower rate of polymerization
same,time for slope to shift to that of preincubated samples,"muscle G-actin [3]; 5 μM TB4 added after polymerization started, mixing interval, all n = 7 samples",≤ 6 s
same,"kon (rate constant of binding), minimal","muscle G-actin [3]; bovine spleen TB4 5 μM, 2 μM pyrenyl muscle G-actin, Equation 1, SD 0.003, n = 7",> 45000 M⁻¹ s⁻¹
same,"koff, minimal","muscle G-actin [3]; from Kd and minimal kon, muscle actin",greater than 0.09 s-1
same,activity after boiling,[4],remains active after boiling
same,Kd,"muscle G-actin [5]; read-out: Kd for muscle actin (literature), ref Weber et al., 1992",2000 nM
same,kon (literature),muscle G-actin [5]; ref Goldschmidt-Clermont et al. (1992),0.75 s⁻¹
same,effect of PIPs on binding,"muscle G-actin [5]; ref Janmey et al., 1992",nor affected by PIPs
same,binding to pyrene vs unlabeled muscle actin,"muscle G-actin [5]; ref Weber et al., 1992",binds equally well to pyrene and unlabeled muscle actin
same,calcium sensitivity of binding,"muscle G-actin [5]; ref Weber et al., 1992",neither calcium sensitive
same,PMN band antibody reactivity (actin and TB4),G-actin; immunoblot of band with mobility similar to actin/TB4 complex,reacts positively with antibodies to both actin
same,fraction of G-actin migrating like G-actin/T beta 4 complex,"G-actin; supernatants from resting PMNs, 7.5% non-denaturing gels",a large fraction of G-actin in supernatants prepared from resting PMNs has a mobility similar to the G- actin/T beta 4 complex
C=C1[C@@H](C)[C@H]2[C@H](Cc3ccccc3)NC(=O)[C@]23OC(=O)/C=C/[C@H](O)CCC[C@@H](C)C/C=C/[C@H]3[C@@H]1O [cytochalasin B],effect on chemoattractant induced increase in F-actin,"F-actin in human PMNs; cytochalasin B with FNLLP, 2 μM in Fig. 3a",blocks the chemoattractant induced in- crease in F-actin
formylnorleucyileucylphenylalanine [FNLLP],F-actin upon stimulation,"F-actin in human PMNs; 10^-7 M FNLLP, 30 s, n = 6",200 + 42 % of the amount in resting cel
same,F-actin of stimulated vs resting cells (Fig. 4 experiment),"F-actin in human PMNs; 10^-7 M FNLLP, 30 s, not shown",approximately twice
same,F-actin increase upon stimulation (Fig. 3a),"F-actin in human PMNs; 10^-7 M FNLLP, 30 s, single representative experiment of Fig. 3",1.5 fold
same,"TB4 staining of actin/TB4 band after stimulation, anti-TB4 immunoblot","[6]; 23°C, n = 6",53 + 9 % of the resting cell level
same,"intensity of G-actin/TB4 band, Coomassie blue",[6]; non-denaturing gel,reduces the intensity of the G-actin/T~4 band
same,slope of pyrenyl actin polymerization in stimulated cell supernatant,"pyrenyl G-actin; Fig. 4, R2 = 0.777, resting supernatant slope 13.6, 10^-7 M FNLLP, 30 s",6.1 fluorescent U/min
same,"inhibitory activity of boiled supernatants, resting vs stimulated","pyrenyl G-actin; boiled supernatants from resting and FNLLP-stimulated cells, not shown",approximately equal inhibitory activity
same,rate of pointed end polymerization in stimulated supernatant (Fig. 4),"pyrenyl G-actin; single experiment of Fig. 4, 10^-7 M FNLLP, 30 s",45 % of the rate in the resting supernatant
